Paper PMC12186490, “Environmental pH controls antimicrobial production by human probiotic Streptococcus salivarius” (Journal of Bacteriology, 2025)

System: sar-BGC (sarD) expression in WT SAL
Assay: sarD transcript levels by qRT-PCR after lactate supplementation of WT SAL
Assay type: cell-based, Streptococcus salivarius K12
Settings: WT SAL at late-exponential growth (A600 ~ 2.0), fresh THY with sodium lactate, 15 minutes; relative to WT-LE growth; three biological replicates
Experimental: Fig 2 SAL upregulates sar-BGC expression in concert with environmental acidification. (A) Wild-type (WT) SAL was grown in THY broth, and samples were collected at the indicated time points. Growth medium pH, sar-BGC (sarD) transcript levels, and bacterial growth by absorption at wavelength 600 nm (A600) were determined. Right y-axes represent fold change in sar-BGC transcript levels (green) and A600 (red), whereas the left y-axis represents pH of the growth medium (black). Fold changes in transcript levels at indicated time points relative to starting culture (time point t = 0 h) are shown. Data are mean ± standard deviation for three biological replicates. (B) WT SAL grown in THY to late-exponential growth phase (LE, A600 ~ 2.0) was harvested by centrifugation, suspended in THY broth adjusted to indicated pH, and incubated for 15 minutes. […] P values assessed by t-test analyses relative to WT LE growth are shown (n.s, not significant; *, P < 0.05; ****, P < 0.0001). […]
SAL and other lactic acid bacteria acidify their environment via lactic acid production during their growth. […] After 15 min incubation, cells were collected and sarD transcript levels in each pH were assessed by quantitative real-time PCR (qRT-PCR). […] To test whether lactate acts as a signal for the induction of sar-BGC expression, we assessed sarD transcript levels in SAL grown in the presence of lactate. […]

With `CC(O)C(=O)[O-].[Na+]` (stereo not shown) [lactate, sodium lactate] the “induction of sar-BGC expression (sarD transcript levels)” value was “did not induce sar-BGC expression”.
